Key:
[1] = test system: arachidonic acid-induced epidermal proliferation; test: Arachidonic acid-induced epidermal proliferation in guinea pig ear skin (3H-thymidine labelling, liquid scintillation counting); assay type: in vivo; conditions: for cpm S.E.: 25 µl topical on ear once daily for four days after 1% AA, mean ± S.E.; for inhibition in vivo at 1 %: Cavia porcellus, 1% drug topical, versus contralateral vehicle-treated ear, * statistically significant, + not significant due to variability, read-out: % Re-duction (cpm, proliferation); for effect on AA-induced proliferation (in words): topical application, 1% unless otherwise stated
Method: (§1) The effect of selected compositions on cutaneous inflammation caused by topical application of arachidonic acid was evaluated. In addition to inflammation, the proliferative response of the epidermis treated with arachidonic acid and the compositions was evaluated. Fourteen acylaminophenols were studied. The drugs were dissolved in propylene glycol plus ethanol (30:70) and were used at 1% concentrations unless otherwise stated. Fourteen groups of five guinea pigs each served as the experimental subjects. The dorsal skin of both ears was treated once daily for four days (9:00 am) with 25 µl 1% solution of AA in propylene glycol/ethanol (30/70). Immediately after this application, one ear of each guinea pig was randomly chosen for application of 25 µl of the test compound, while the contralateral ear received the vehicle, alone. During the four-day experimental period, DNA synthesized was labeled by continuous administration of a radioactive'precursor, ^3H-thymidine (3 i.p. injections/day of 10µCi each). Erythema developing in response to topical AA was measured daily on a subjective scale of 0 to 3; where 0 = none,1= mild, 2 = moderate, and 3 = intense. The average erythema scores were plotted as a function of time, and areas under the response curves were determined for expression of total erythema. On the fifth day, animals were killed and six mm diameter circular samples of dorsal skin from the central portion of the treatment sites were harvested and solubilized in NCS® solubilizer. These tissue solutions were acidified and a simple fluor (diphenyloxazole in toluene) was added for determination of radioactivity by liquid scintillation counting. Radioactivity expressed as counts-per-minute (cpm) correlate with the amount of proliferative activity in the epidermis.

[2] = test system: arachidonic acid-induced erythema; test: Arachidonic acid-induced erythema in guinea pig ear skin (subjective score 0 to 3, area under response curve); assay type: in vivo; conditions: for Total Erythema: area under curve of average erythema score (0 to 3) over four days; for inhibition in vivo at 1 %: Cavia porcellus, versus contralateral vehicle-treated ear, read-out: % Re-duction (Total Erythema); for effect on AA-induced erythema (in words): topical application, 1% unless otherwise stated
Method: as §1

[3] = 1% drug in propylene glycol/ethanol (30:70), 6 mm skin sample on fifth day

Row | SMILES | cpm S.E. [1, 3] [cpm] | inhibition in vivo at 1 % [1] [%] | effect on AA-induced proliferation (in words) [1] | Total Erythema ([2]; 1% drug topical) | inhibition in vivo at 1 % ([2]; 1% drug topical) [%] | effect on AA-induced erythema (in words) [2] | cpm S.E. ([1]; 0.56% drug in propylene glycol/ethanol (30:70)) [cpm] | Total Erythema ([2]; 0.56% drug topical)
1 | O=C(Nc1ccc(O)cc1)c1ccccc1O | 1532± 91 | 23.3 | showed activity | 3.2 | 41.8 | showed activity | – | –
2 | O=C(Nc1ccc(O)cc1)c1ccccc1 [4-benzoylaminophenol, reference compound] | 2214±316 | 4.2 | inactive | 3.8 | 20.8 | inactive | – | –
3 | CCCC(=O)Nc1ccc(O)cc1 [4-n-butyroylaminophenol, reference compound] | 2680±360 | 27.8 | significantly inhibited | 4.6 | 4.2 | without effect | – | –
4 | CCCCCCCCCC(=O)Nc1ccc(O)cc1 [4-n-decanoylaminophenol] | 1311± 48 | 37.5 | good activity | 2.0 | 47.4 | good activity | – | –
5 | CCCCCCCCCCCC(=O)Nc1ccc(O)cc1 [4-n-dodecanoylaminophenol] | 2487±368 | 29 | good activity | 3.8 | 29 | good activity | – | –
6 | CCCCCCC(=O)Nc1ccc(O)cc1 [4-n-heptanoylaminophenol] | 1435± 77 | 27.3 | good activity | 1.8 | 47 | good activity | – | –
7 | CCCCCCCCCCCCCCCC(=O)Nc1ccc(O)cc1 [4-n-hexadecanoylaminophenol, reference compound] | – | – | without substantial effect | – | – | without substantial effect | 3275±463 | 4.8
8 | CCCCCC(=O)Nc1ccc(O)cc1 [4-n-hexanoylaminophenol] | 1488±104 | 28.3 | good activity | 1.9 | 50 | good activity | – | –
9 | CCCCCCCCC(=O)Nc1ccc(O)cc1 [4-n-nonanoylaminophenol] | 1472±135 | 20.9 | good activity | 2.1 | 34.4 | good activity | – | –
10 | CCCCCCCC(=O)Nc1ccc(O)cc1 [4-n-octanoylaminophenol] | 1589±361 | 39.1 | good activity | 2.7 | 49 | good activity | – | –
11 | CCCCCCCCCCCCCC(=O)Nc1ccc(O)cc1 [4-n-tetradecanoylaminophenol, reference compound] | 1681±296 | 15.1 | without substantial effect | 3.8 | 0 | without substantial effect | – | –
12 | CCCCCCCCCCC(=O)Nc1ccc(O)cc1 [4-n-undecanoylaminophenol] | 1380±205 | 37.3 | good activity | 2.1 | 38.2 | good activity | – | –
13 | CCC(=O)Nc1ccc(O)cc1 [4-propionylaminophenol, reference compound] | 1777±251 | 2.6 | without substantial effect | 5.5 | -14.6 | without substantial effect | – | –
14 | CC(=O)Nc1ccc(O)cc1 [Acetaminophen, acetamidophenol, reference compound] | 3140±346 | 8 | no significant effect | 5.2 | 0 | no significant effect | – | –

Source: patent EP0091519A1, “Topical acylaminophenols” (Johnson & Johnson Products Inc., priority 1982, dated 1983)
